# Values of other authors, collected in patent publication US20080292693A1, “COMPOSITION AND METHOD FOR TREATING DIGESTIVE SYSTEM DISORDERS” (priority 2007, published 2008).
# Experiments:
# [1] = tested on: GERD
# [2] = tested on: Crohn's disease; conditions: double-blind clinical study, daily dose of 1,000 mg
compound,measurement,setting,value
C=C(C)[C@H]1CC=C(C)CC1 [d-Limonene],symptoms of GERD,"[1]; double-blind clinical study, daily dose of 1,000 mg",significantly reduce
same,responders free of GERD symptoms,"[1]; one GERD study, for up to six months without taking an additional dose",fifty
same,symptoms of Crohn's disease,[2],significantly reduce
